Test systems include A498; A549; CAKI-1; EKVX; HL-60; HOP-92; HT-29; LXFL 529; M14; MOLT-4; OVCAR-4; OVCAR-8; SF-539; SK-MEL-2; SK-OV-3; SW-620; UO-31; SF-268.
What all share (experiment): NCI tumour cell line growth inhibition, 48 h

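The compound was tested at five concentrations on cells cultured in 96-well plates, with a 48-hour exposure period. The concentration for 50% growth inhibition is given as GI50.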 Calls of active or inactive are those of the source. No stated cut-off is given here; in the data, active = GI50 up to about 1.1 µM and inactive = higher. Bounds are passed on as bounds.

For `CC1(C(=O)NCCN(CCNC(=O)C2(C)CC3(C)CC(C)(C2)C(=O)NC3=O)CCNC(=O)C2(C)CC3(C)CC(C)(C2)C(=O)NC3=O)CC2(C)CC(C)(C1)C(=O)NC2=O` (configuration not stated), the GI50 in the test on A498 was > 100 µM (inactive); with A549 it was > 100 µM (inactive); in the test with CAKI-1, > 100 µM (inactive); in the test on EKVX it was > 100 µM (inactive); with HL-60 it was > 100 µM (inactive); in the test with HOP-92, < 0.01 µM (active). Besides, the GI50 in the test with HT-29, with LXFL 529, in the test on M14, with MOLT-4, in the test on OVCAR-4 and in the test on OVCAR-8 was > 100 µM (inactive) in each case. The GI50 with SF-539, in the test with SK-MEL-2, in the test with SK-OV-3, with SW-620 and with UO-31 was > 100 µM (inactive) in each case.
On to `CNS(=O)(=O)NNS(=O)(=O)c1ccccc1`, for which the GI50 with A498, with A549, with CAKI-1, in the test with EKVX, in the test on HL-60 and in the test with HOP-92 was > 100 µM (inactive) each time. Also, the GI50 in the test with HT-29, in the test on LXFL 529, in the test with M14, in the test with MOLT-4, with OVCAR-8 and with SF-268 was > 100 µM (inactive) in each case. In addition, the GI50 in the test on SF-539, in the test with SK-MEL-2, in the test with SK-OV-3, in the test on SW-620 and in the test with UO-31 was > 100 µM (inactive) in each case.
Consider `N#CNc1nc(N)c(-c2ccc(Cl)cc2)c(C(=O)Nc2nccs2)n1`, for which the GI50 with A498, with A549, in the test with CAKI-1, in the test with EKVX, with HL-60 and in the test on HOP-92 was > 100 µM (inactive) each time. The GI50 in the test on HT-29, in the test with LXFL 529, in the test on M14, with MOLT-4, in the test with OVCAR-4 and in the test on OVCAR-8 was > 100 µM (inactive) throughout. Also, the GI50 in the test on SF-268, with SF-539, in the test with SK-MEL-2, in the test with SW-620 and in the test on UO-31 was > 100 µM (inactive) in each case.
Regarding `Cc1ccc(NC(=O)COC(=O)c2cccc3c(=O)c4ccccc4[nH]c23)cc1`, the GI50 with A498 is 19.1 µM (inactive); in the test on A549, 36.6 µM (inactive); with CAKI-1, 29.2 µM (inactive); with EKVX, 16.8 µM (inactive); in the test on HL-60, 38.3 µM (inactive); in the test on HOP-92, 82.8 µM (inactive). Besides, the GI50 with HT-29 was 36.6 µM (inactive); in the test on LXFL 529, 32.1 µM (inactive); in the test with M14, 68.5 µM (inactive); in the test with MOLT-4, 13.6 µM (inactive); with OVCAR-4, 48.3 µM (inactive); in the test on OVCAR-8, 35.3 µM (inactive). Besides, the GI50 in the test with SF-268 was 35.6 µM (inactive); in the test on SF-539 it was 22.9 µM (inactive); in the test with SK-OV-3, 25.5 µM (inactive); with SW-620 it was 21.5 µM (inactive); with UO-31 it was 5.35 µM (inactive).
Regarding `C1C[N+]23CCC[N+]2(C1)CCC3` (configuration not stated), the GI50 was > 100 µM (inactive) with A498; > 100 µM (inactive) in the test with A549; > 100 µM (inactive) in the test on CAKI-1; > 100 µM (inactive) with EKVX; 31.1 µM (inactive) in the test on HL-60; > 100 µM (inactive) in the test with HOP-92. Further, the GI50 in the test with HT-29, in the test on LXFL 529, with M14, with MOLT-4, in the test with OVCAR-4 and in the test with OVCAR-8 was > 100 µM (inactive) each time. The GI50 in the test with SF-268 was > 100 µM (inactive); in the test with SF-539, > 100 µM (inactive); in the test on SK-MEL-2, > 100 µM (inactive); with SK-OV-3 it was > 100 µM (inactive); with SW-620, > 100 µM (inactive); in the test on UO-31, 99.8 µM (inactive).
In the case of `NS(=O)(=O)c1ccc(NC(=O)c2cccc3c(Nc4ccc(S(N)(=O)=O)cc4)c4ccccc4nc23)cc1`, the GI50 was > 100 µM (inactive) in the test on A498; > 100 µM (inactive) with A549; 38.2 µM (inactive) in the test with CAKI-1; > 100 µM (inactive) in the test on EKVX; 28.6 µM (inactive) with HL-60; 33.8 µM (inactive) in the test on HOP-92. Also, the GI50 in the test with HT-29 is 14.6 µM (inactive); in the test with LXFL 529 it was 12.2 µM (inactive); in the test on M14, > 100 µM (inactive); in the test with MOLT-4, 4.5 µM (inactive); in the test on OVCAR-4, 22.4 µM (inactive); with OVCAR-8 it was 48.5 µM (inactive). For the same molecule, the GI50 with SF-268 was 15.5 µM (inactive); with SF-539, 20.8 µM (inactive); with SK-MEL-2 it was 20 µM (inactive); in the test on SK-OV-3, > 100 µM (inactive); in the test with SW-620, 29.4 µM (inactive); with UO-31, 93.5 µM (inactive).
As for `O=C(/C=C/c1ccccc1)/C=C/c1ccccc1`, the GI50 in the test on A498 is > 100 µM (inactive); in the test with A549 it was > 100 µM (inactive); in the test with CAKI-1, 92.9 µM (inactive); in the test on HL-60, 23.2 µM (inactive); in the test on HOP-92, 34.8 µM (inactive); with HT-29, 17.8 µM (inactive). Moreover, the GI50 in the test on LXFL 529 is 21.2 µM (inactive); in the test with M14, 19.8 µM (inactive); in the test on MOLT-4 it was 20.7 µM (inactive); in the test with OVCAR-4, 22.1 µM (inactive); in the test on SF-268, 28.4 µM (inactive); with SF-539, 19.5 µM (inactive). The GI50 was > 100 µM (inactive) in the test on SK-MEL-2, 43 µM (inactive) with SK-OV-3, 17.4 µM (inactive) with SW-620 and 43.5 µM (inactive) in the test with UO-31.
`CCO/C([O-])=C(\C(=O)c1ccccc1)[n+]1c(C)n(C)c2ccccc21`: the GI50 in the test on A498, in the test with A549, with CAKI-1, in the test with EKVX, in the test with HL-60 and in the test with HT-29 was > 100 µM (inactive) in each case. Also, the GI50 in the test with LXFL 529, with M14, in the test with MOLT-4, with OVCAR-4, with OVCAR-8 and with SF-268 was > 100 µM (inactive) each time. For the same molecule, the GI50 in the test with SF-539, with SK-MEL-2, in the test on SK-OV-3, in the test on SW-620 and in the test with UO-31 was > 100 µM (inactive) throughout.
Take `Nc1nc(N)c(-c2ccc(Cl)cc2)c(CCC(=O)Nc2cccc(C(F)(F)F)c2)n1`: the GI50 in the test on A498, in the test on A549, in the test on CAKI-1, in the test on EKVX, in the test on HL-60 and in the test on HT-29 was > 100 µM (inactive) in each case. Further, the GI50 in the test with LXFL 529, with M14, in the test on MOLT-4, in the test on OVCAR-4, in the test with OVCAR-8 and with SF-268 was > 100 µM (inactive) throughout. In addition, the GI50 in the test with SF-539, in the test with SK-MEL-2, in the test with SK-OV-3, with SW-620 and in the test on UO-31 was > 100 µM (inactive) in each case.
As to `O=C(OCCOCCOC(=O)c1c[nH]cc1-c1ccccc1)c1c[nH]cc1-c1ccccc1`, the GI50 in the test on A498 is 19.3 µM (inactive); in the test on A549 it was 22.2 µM (inactive); with CAKI-1, 26.5 µM (inactive); with EKVX, 26.7 µM (inactive); in the test on HL-60, 17.9 µM (inactive); in the test with HOP-92 it was 20.3 µM (inactive). Besides, the GI50 in the test with HT-29 was 18.8 µM (inactive); in the test on LXFL 529 it was 21.8 µM (inactive); in the test on M14 it was 14.8 µM (inactive); in the test with MOLT-4, 17.9 µM (inactive); with OVCAR-4, 18.3 µM (inactive); in the test on OVCAR-8, 29.4 µM (inactive). Further, the GI50 in the test with SF-268 is 15.5 µM (inactive); with SF-539, 17.9 µM (inactive); with SK-OV-3, 35.1 µM (inactive); in the test on SW-620 it was 28.4 µM (inactive); with UO-31 it was 14.1 µM (inactive).
As to `CCOC(=O)NC(=O)c1cn(CCOCCOC(=O)NCCCCCCNC(=O)OCCOCCn2cc(C(=O)NC(=O)OCC)c(=O)[nH]c2=O)c(=O)[nH]c1=O`, the GI50 in the test with A498, in the test with A549, in the test with EKVX, with HL-60, with HOP-92 and with HT-29 was > 100 µM (inactive) throughout. Besides, the GI50 with LXFL 529, in the test on M14, with OVCAR-4, in the test with OVCAR-8, in the test on SF-268 and with SF-539 was > 100 µM (inactive) throughout. For the same molecule, the GI50 in the test with SK-MEL-2, in the test on SK-OV-3, in the test with SW-620 and with UO-31 was > 100 µM (inactive) each time.

The values above are taken from ChEMBL document CHEMBL1201862, “PubChem BioAssay data set” (2004).
